Measurements as given in ChEMBL document CHEMBL1955788, “C-C bond formation at C-2 of a quinoline ring: synthesis of 2-(1H-indol-3-yl)quinoline-3-carbonitrile derivatives as a new class of PDE4 inhibitors” (Bioorg Med Chem, 2012).
Active and inactive are the calls of the source. The calls are words filed in the database; no cut-off is given here.

biological target: T1, 3',5'-cyclic-AMP phosphodiesterase 4B (Homo sapiens, UniProt Q07343); test: Inhibition of PDE4B expressed in HEK293 cells assessed as fold reduction in forskolin-stimulated cAMP production pretreated for 30 mins measured 4 hrs after forskolin challenge by luciferase reporter gene assay; assay type: functional, cell-based
T1 sequence (Q07343 whole entry): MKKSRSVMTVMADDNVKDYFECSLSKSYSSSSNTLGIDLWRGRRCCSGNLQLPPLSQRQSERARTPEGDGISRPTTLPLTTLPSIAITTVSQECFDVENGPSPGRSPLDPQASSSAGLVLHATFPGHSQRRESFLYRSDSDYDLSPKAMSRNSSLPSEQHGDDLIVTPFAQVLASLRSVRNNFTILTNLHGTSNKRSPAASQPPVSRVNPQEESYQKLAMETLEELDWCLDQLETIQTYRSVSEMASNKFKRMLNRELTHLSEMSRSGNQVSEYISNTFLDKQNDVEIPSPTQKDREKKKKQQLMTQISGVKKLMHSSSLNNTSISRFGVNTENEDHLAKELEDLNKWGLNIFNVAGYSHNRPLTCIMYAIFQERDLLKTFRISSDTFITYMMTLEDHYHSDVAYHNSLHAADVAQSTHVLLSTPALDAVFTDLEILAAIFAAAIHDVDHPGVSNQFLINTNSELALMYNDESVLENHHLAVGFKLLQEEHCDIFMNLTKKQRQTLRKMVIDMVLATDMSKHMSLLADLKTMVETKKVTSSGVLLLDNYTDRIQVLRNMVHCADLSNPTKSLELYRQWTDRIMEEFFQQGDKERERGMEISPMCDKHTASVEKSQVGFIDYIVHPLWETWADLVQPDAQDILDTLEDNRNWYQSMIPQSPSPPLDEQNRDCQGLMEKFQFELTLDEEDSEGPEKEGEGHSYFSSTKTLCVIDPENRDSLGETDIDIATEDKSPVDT

Compound | EC50 [nM] | inhibition
COc1ccc2c(-c3nc4ccccc4cc3C#N)c[nH]c2c1 | 890 | Dose-dependent effect

biological target: T1, 3',5'-cyclic-AMP phosphodiesterase 4B; test: Inhibition of PDE4B expressed in HEK293 cells assessed as fold reduction in forskolin-stimulated cAMP production at 10 uM pretreated for 30 mins measured 4 hrs after forskolin challenge by luciferase reporter gene assay; assay type: functional, cell-based

Compound | PDE4B inhibition activity (fold reduction in cAMP)
Cc1ccc2nc(-c3c[nH]c4ccc(Br)cc34)c(C#N)cc2c1 | Active
COc1ccc2[nH]cc(-c3nc4ccc(C)cc4cc3C#N)c2c1 | Active
N#Cc1cc2ccccc2nc1-c1c[nH]c2ccc(Cl)cc12 | Active
COc1ccc2c(-c3nc4ccccc4cc3C#N)c[nH]c2c1 | Active
COc1ccc2c(-c3nc4ccc(C)cc4cc3C#N)c[nH]c2c1 | Active
COc1ccc2[nH]cc(-c3nc4ccccc4cc3C#N)c2c1 | Active
Cc1ccc2nc(-c3c[nH]c4ccc(Cl)cc34)c(C#N)cc2c1 | Active
N#Cc1cc2ccccc2nc1-c1c[nH]c2ccc(Br)cc12 | Active
N#Cc1cc2ccccc2nc1-c1c[nH]c2ccccc12 | Active
Cc1ccc2nc(-c3c[nH]c4ccccc34)c(C#N)cc2c1 | Active
Cn1cc(-c2nc3ccccc3cc2C#N)c2ccccc21 | Active
N#Cc1cc2ccccc2nc1-c1c[nH]c2cc(F)c(F)cc12 | Active
